≈ marks a conversion by molar mass, not a printed value. Entries after “also recorded” stand apart in the source; their conditions may differ. Like-named read-outs stand apart in the source and are kept apart here.
Experiments:
[1] = test system: Mtb H37Rv (SRI 1345); experiment: microbe, parasite or virus in culture; type: cell-based, Mycobacterium tuberculosis
[2] = test system: H37Rv Colorado strain; experiment: MBC Determination with H37Rv Colorado strain (Table 9); type: cell-based; details: Mycobacterium tuberculosis; Performed with H37Rv
[3] = test system: Mtb H37Rv (SRI 1345) in murine J774 cells; type: cell-based, Mycobacterium tuberculosis
[4] = test system: H37Rv Colorado strain; experiment: TB MIC Testing (Table 9); type: cell-based; details: Mycobacterium tuberculosis, read-out: MIC Value, Standard Test Strain H27Rv
[5] = test system: TB; experiment: DMID TB MIC Results (Table 10); type: cell-based; details: Mycobacterium tuberculosis; solvent DMSO
[6] = test system: Mtb H37Rv (SRI 1345), nonreplicating persistence; type: cell-based, Mycobacterium tuberculosis
[7] = test system: uninfected J774 macrophages; details: mouse
[8] = test system: Mtb H37Rv (SRI 1345); experiment: microbe, parasite or virus in culture; type: cell-based, Mycobacterium tuberculosis; details: for MIC: Mycobacterium tuberculosis, H37RV, 168 h, read-out: MIC H37Rv
[9] = test system: F. tularensis SCHU S4; parameters: species or system BALB/c mice; details: mouse, in vivo
[10] = test system: Francisella tularensis; experiment: microbe, parasite or virus in culture; type: cell-based
[11] = test system: Vero Cells; experiment: Cytotoxicity Assay, CellTiter-Glo Luminescent Cell Viability Assay
[12] = test system: E. coli; experiment: microbe, parasite or virus in culture; type: cell-based; details: Escherichia coli, read-out: MIC E. coli
[13] = test system: Y. pestis; experiment: microbe, parasite or virus in culture; type: cell-based; details: Yersinia pestis, read-out: MIC Y. pestis
[14] = test system: P. aeruginosa; experiment: microbe, parasite or virus in culture; type: cell-based; details: Pseudomonas aeruginosa, read-out: MIC P. aeruginosa
[15] = test system: Yersinia pestis; experiment: microbe, parasite or virus in culture; type: cell-based
[16] = test system: Y. pestis C092; type: in vivo, BALB/c mice
[17] = test system: Plasmodium falciparum; experiment: Anti-malaria testing; type: cell-based
[18] = test system: B. anthracis; experiment: microbe, parasite or virus in culture; type: cell-based; details: Bacillus anthracis, read-out: MIC B. anthracis
[19] = test system: B. pseudomallei; experiment: microbe, parasite or virus in culture; type: cell-based; details: Burkholderia pseudomallei, read-out: MIC B. pseudomallei
[20] = test system: B. mallei; experiment: microbe, parasite or virus in culture; type: cell-based; details: Burkholderia mallei, read-out: MIC B. mallei
[21] = test system: F. tularensis; experiment: microbe, parasite or virus in culture; type: cell-based; details: Francisella tularensis, read-out: MIC F. tularensis (Original Test)
[22] = mouse, in vivo
[23] = test system: Burkholderia mallei; experiment: microbe, parasite or virus in culture; type: cell-based
[24] = test system: Bacillus anthracis; experiment: microbe, parasite or virus in culture; type: cell-based
[25] = test system: HIV-1 ROJO (low passage clinical strain); experiment: PBMC assay, virus production by reverse transcriptase activity; type: cell-based; details: PBMCs
[26] = test system: Burkholderia pseudomallei; experiment: microbe, parasite or virus in culture; type: cell-based
[27] = test system: fresh human peripheral blood mononuclear cells
[28] = test system: HIV-1; experiment: CEM-SS microtiter antiviral XTT cytoprotection assay; type: cell-based
[29] = test system: CEM-SS cells
[30] = test system: several bacteria; type: cell-based

For CO[C@H]1/C=C/O[C@@]2(C)Oc3c(C)c(O)c4c(O)c(c(/C=N/N5CCN(C)CC5)c(O)c4c3C2=O)NC(=O)/C(C)=C\C=C\[C@H](C)[C@H](O)[C@@H](C)[C@@H](O)[C@@H](C)[C@H](OC(C)=O)[C@@H]1C [Rifampin, rifampin, reference compound], the “Colony Count” value [1] was 23 CFU, the MBC ([1]; Mycobacterium tuberculosis, H37RV) was 3.12 µg/mL (≈ 3.8 µM) and the MBC [2] was 0.0063 µg/mL (≈ 0.00766 µM). The “Microphage log reduction (high conc.)” value [3] was 2.00, the “Microphage log reduction (low conc.)” value [3] was 0.76 and the “Microphage log reduction (mid conc.)” value [3] was 1.11. The MIC [4] was 0.0031 µg/mL (≈ 0.00377 µM), the MIC [5] was 0.006 µg/mL (≈ 0.00729 µM) and the LORA [6] was 1.56 µg/mL. The “MTT % viability (high conc.)” value [7] was 86%, the “MTT % viability (low conc.)” value [7] was 97% and the “MTT % viability (mid conc.)” value [7] was 96%. For the same molecule, the “% inhibition at the MIC concentration” value [8] was 81% and the MIC [8] was 0.049 µg/mL (≈ 0.0595 µM).
With C[C@@H]1COc2c(N3CCN(C(=N)NC(=N)N4CCN(c5c(F)cc6c(=O)c(C(=O)O)cn7c6c5OC[C@@H]7C)CC4)CC3)c(F)cc3c(=O)c(C(=O)O)cn1c23 [BVS-76D (XVII)] the “life span of the mice (average)” value [9] was 10 days, the “outcome by day 13” value [9] was “all the mice in test Groups 3, 4 and 5 were dead” and the “protection of infected mice” value [9] was “partial protection; also recorded: not significantly effective”. The MBC [2] was 0.625 µg/mL (≈ 0.82 µM), the MIC90 ([10]; Francisella tularensis) was less than 4 µg/mL and the “% Viability” value ([11]; 0.01 μg/ml) was 119%. The “% Viability” value ([11]; 0.02 μg/ml) was 105%, the “% Viability” value ([11]; 5 μg/ml) was 113% and the “% Viability” value ([11]; 10 μg/ml) was 100%. The “% Viability” value ([11]; 20 μg/ml, vs […] DMSO controls) was 96%, the MIC [12] was less than 0.06 µg/mL and the MIC [13] was less than 0.06 µg/mL. The MIC [14] was 0.25 µg/mL (≈ 0.328 µM), the MIC90 ([15]; Yersinia pestis) was less than 4 µg/mL and the survival ([16]; 21 days) was 100%. For the same molecule, the “protection of infected mice” value ([16]; mouse, in vivo, 5 mg/kg/day) was “complete protection”, the IC50 ([17]; average of Test 1 and Test 2, read-out: Average IC50) was 2720 nM and the IC50 ([17]; read-out: IC50 Test 1) was 4020 nM. For the same molecule, the IC50 ([17]; read-out: IC50 Test 2) was 1430 nM, the MIC [4] was 0.312 to 0.625 µg/mL (≈ 0.41 to 0.82 µM) and the MIC [18] was less than 0.06 µg/mL. It also gave an MIC [19] of 2 to 4 µg/mL (≈ 2.63 to 5.25 µM), an MIC [20] of 1 µg/mL (≈ 1.31 µM) and an IC50 [5] of 1.1 µg/mL (≈ 1.44 µM). It also gave an IC90 [5] of 1.19 µg/mL (≈ 1.56 µM), an MIC [5] of 1.25 µg/mL (≈ 1.64 µM) and an MIC [21] of less than 0.06 µg/mL. The “symptoms in treated animals incl. unchallenged toxicity group” value [22] was “some inflammation in the urinary, vaginal and rectal areas”, the MIC90 ([23]; Burkholderia mallei) was less than 4 µg/mL and the MIC90 ([24]; Bacillus anthracis) was no more than 0.25 µg/mL.
With N=C(NCCCCCCNC(=N)NC(=N)N1CCN(c2cc3c(cc2F)c(=O)c(C(=O)O)cn3C2CC2)CC1)NC(=N)N1CCN(c2cc3c(cc2F)c(=O)c(C(=O)O)cn3C2CC2)CC1 [BVS-10A] the “concentrations at which active” value [25] was “greater than 3.2 μg/mL”, the “MIC Range” value [26] was 4 to 64 µg/mL and the “isolates with MICs<16 μg/ml” value [26] was 30%. The MIC50 ([26]; Burkholderia pseudomallei) was 32 µg/mL (≈ 35 µM), the MIC90 ([26]; Burkholderia pseudomallei) was 64 µg/mL (≈ 70.1 µM) and the “TOXICITY VALUES (XTT) % CC” value ([27]; 0.01 μg/ml) was 103.2%. For the same molecule, the “TOXICITY VALUES (XTT) % CC” value ([27]; 0.032 μg/ml) was 103.6%, the “TOXICITY VALUES (XTT) % CC” value ([27]; 0.1 μg/ml) was 97.1% and the “TOXICITY VALUES (XTT) % CC” value ([27]; 0.32 μg/ml) was 100.9%. For the same molecule, the “TOXICITY VALUES (XTT) % CC” value ([27]; 1 μg/ml) was 96.2%, the “TOXICITY VALUES (XTT) % CC” value ([27]; 3.2 μg/ml) was 103.5% and the “TOXICITY VALUES (XTT) % CC” value ([27]; 10 μg/ml) was 108.3%. The “TOXICITY VALUES (XTT) % CC” value ([27]; 32 μg/ml) was 97.3%, the “toxicity in PBMCs” value ([27]; 100 μg/mL) was “Toxicity was detected” and the “TOXICITY VALUES (XTT) % CC” value ([27]; 100 μg/ml) was 51.2%. The “Colony Count” value [1] was “TNTC”, the “Microphage log reduction (low conc.)” value [3] was 1.14 and the “Microphage log reduction (mid conc.)” value [3] was 0.80. The “% RED. IN VIRAL CPC” value ([28]; 0.00032 nG/mL) was 3%, the “% RED. IN VIRAL CPC” value ([28]; 0.001 nG/mL) was 4% and the “% RED. IN VIRAL CPC” value ([28]; 0.0032 nG/mL) was 1%. For the same molecule, the “% RED. IN VIRAL CPC” value ([28]; 0.01 nG/mL) was 4%, the “% RED. IN VIRAL CPC” value ([28]; 0.032 nG/mL) was 7% and the “% RED. IN VIRAL CPC” value ([28]; 0.1 nG/mL) was 2%. The “% RED. IN VIRAL CPC” value ([28]; 0.32 nG/mL) was 4%, the “% RED. IN VIRAL CPC” value ([28]; 1 nG/mL) was 9% and the “% RED. IN VIRAL CPC” value ([28]; 3.2 nG/mL) was 2%. For the same molecule, the “% RED. IN VIRAL CPC” value ([28]; 10 nG/mL) was 11%, the “% RED. IN VIRAL CPC” value ([28]; 32 nG/mL) was 100% and the “% RED. IN VIRAL CPC” value ([28]; 100 nG/mL) was 100%. For the same molecule, the “MIC Range” value [10] was less than 0.03125 to 0.25 µg/mL, the MIC50 ([10]; Francisella tularensis) was 0.0625 µg/mL (≈ 0.0685 µM) and the “% CELL VIABILITY” value ([29]; 0.00032 nG/mL) was 100%. For the same molecule, the “% CELL VIABILITY” value ([29]; 0.001 nG/mL) was 100%, the “% CELL VIABILITY” value ([29]; 0.0032 nG/mL) was 100% and the “% CELL VIABILITY” value ([29]; 0.01 nG/mL) was 100%. For the same molecule, the “% CELL VIABILITY” value ([29]; 0.032 nG/mL) was 100%, the “% CELL VIABILITY” value ([29]; 0.1 nG/mL) was 100% and the “% CELL VIABILITY” value ([29]; 0.32 nG/mL) was 100%. The “% CELL VIABILITY” value ([29]; 1 nG/mL) was 100%, the “% CELL VIABILITY” value ([29]; 3.2 nG/mL) was 100% and the “% CELL VIABILITY” value ([29]; 10 nG/mL) was 100%. For the same molecule, the “% CELL VIABILITY” value ([29]; 32 nG/mL) was 100%, the “% CELL VIABILITY” value ([29]; 100 nG/mL) was 100% and the “TC 25%” value ([29]; human) was greater than 100.00 UG/mL. For the same molecule, the “TC 50%” value ([29]; human) was greater than 100.00 UG/mL, the “TC 95%” value ([29]; human) was greater than 100.00 UG/mL and the “MIC Range” value [15] was 0.125 to 0.5 µg/mL. For the same molecule, the MIC50 ([15]; Yersinia pestis) was 0.25 µg/mL (≈ 0.274 µM), the “minimum inhibitory concentrations (MIC), range over strains” value [30] was less than 0.128 to 12.8 µg/mL and the LORA [6] was greater than 6.25 µg/mL. For the same molecule, the “MTT % viability (high conc.)” value [7] was 73%, the “MTT % viability (low conc.)” value [7] was greater than 100% and the “MTT % viability (mid conc.)” value [7] was 63%. The “MIC Range” value [23] was 0.25 to 8 µg/mL, the MIC50 ([23]; Burkholderia mallei) was 1 µg/mL (≈ 1.1 µM) and the MIC90 ([23]; Burkholderia mallei) was no less than 4 µg/mL. The “MIC Range” value [24] was 0.25 to 2 µg/mL, the MIC50 ([24]; Bacillus anthracis) was 0.5 µg/mL (≈ 0.548 µM) and the “% inhibition at the MIC concentration” value [8] was 66%. It also gave an MIC [8] of 6.25 µg/mL (≈ 6.85 µM).

— patent US20140073631A1 (priority 2012, published 2014)
